Laboratory results from patent EP1342779A1, “Means and methods for manipulating hypersensitivity-like responses” (Fornix Biosciences N.V., priority 2002, dated 2003).

How the values were obtained:
Ig light chain [1] = assay: Ig-LC-induced ear swelling after hapten challenge of mice passively sensitized with TNP-specific Ig-LC (inhibition by F991); assay type: in vivo
Excerpt: F991 is developed as an antagonist of Ig light chain. The working hypothesis for this compound is that it binds to Ig light chains and thereby prevents binding of light chains to their putative receptors. F991 is a 9-mer peptide derived from the endogenous protein uromodulin. The potency of F991 to inhibit Ig-LC induced cutaneous reactions (ear swelling responses) was studied. Our working hypothesis for this compound is that it is an antagonist of Ig-LC and binds to Ig-LC and thereby prevents binding of Ig-LC to their putative receptors. F991 was administered in different dosages, via various administration routes.
Indicated amounts of F991 per mouse were intravenously injected at 30 min before hapten challenge. At that same time point mice were injected (passively sensitized) with TNP-specific Ig-LC or vehicle (PBS). […]
Mice were i.v. sensitized with 2 µg TNP-specific Ig light chain at 30 min before ear challenge with TNP. Control mice were injected with PBS instead of Ig light chain. […]

DNFB-sensitized mice = assay: Contact sensitivity after active sensitization with DNFB, ear swelling; assay type: in vivo; conditions: F991 topically on the ears 4 hours before challenge
Description: • A. F991 was prepared as an ointment in Cremor Cetomacrogolis FNA and topically applied on the ear at 4 hours before hapten challenge. Subsequently, mice were passively sensitized with 2 µg TNP-specific Ig-LC n at 30 min before and ear thickness was measured 2 hours after hapten challenge of the ears. […] Therefore F991 was applied on the back of the mice instead of at the site of hapten challenge (ear). Mice were again sensitized and challenged as described above. […] This means that epicutaneous treatment should be done at the site of challenge (Figure 14). • C. Stability of F991 in ointment To determine the stability of F991 in ointment, different preparations of F991 in Cremor Cetamacrogolis FNA were tested for their activity after storage for 2-3 months at room temperature and at 4 degrees Celsius. The different preparations were applied at the ear as described in A. and subsequently ear swelling was monitored after hapten challenge of Ig-LC-sensitized animals. […] Mice were sensitized with a low molecular weight compound DNFB on the skin and footpads (on day 0 and 1). […]
Topical treatment of DNFB-sensitized mice at 4 hours before hapten challenge results in complete inhibition of the development of contact sensitivity response as determined by earswelling at 2 and 24 hours after challenge.

[2] = tested on: myelin oligodendrocyte glycoprotein (MOG)-induced experimental allergic encephalomyelitis (EAE); assay: MOG-induced experimental allergic encephalomyelitis (EAE), mouse model for MS; assay type: in vivo
Excerpt: If light chains were involved in the activation of mast cells in patients with MS, the prediction is that F991 may be of therapeutic interest in the treatment of MS. We tested if F991 was able to prevent of reduce development clinical signs in an established mouse model for MS, i.e. myelin oligodendrocyte glycoprotein (MOG)-induced experimental allergic encephalomyelitis (EAE). Mouse were sensitized with antigenic peptide 35-55 from MOG in complete freund adjuvant. At the day of sensitization and 3 days later, mice also received an injection with pertussis toxin. In general, 10-12 days after the start of sensitization mice develop clinical signs of MS, which can be scored in degree of paralysis (0=no paralysis, 1=tail flaccidity, 2=hind limb weakness, 3=hind limb paralysis, 4=forelimb paralysis or loss of ability to right supine, 5=death). To investigate if F991 is able to prevent development of clinical signs of MS, mice were daily injected with 50 µg F991/animal i.p. starting at day -1 until day 21. […] Control mice developed disease with a mean day of onset of 11.8 and a mean clinical score of 2.3. There was a significant difference in disease burden (mean cumulative EAE score) between the F991 (mean 4.2) treated group and the control group (mean 18.3). […] (Figure 17).

Ig light chain [3] = assay: Stability of F991 in ointment, read out as activity in the ear swelling test after storage; assay type: in vivo, mice; conditions: Cremor Cetamacrogolis FNA, stored 2-3 months at room temperature and at 4 degrees Celsius
Description: • A. F991 was prepared as an ointment in Cremor Cetomacrogolis FNA and topically applied on the ear at 4 hours before hapten challenge. Subsequently, mice were passively sensitized with 2 µg TNP-specific Ig-LC n at 30 min before and ear thickness was measured 2 hours after hapten challenge of the ears. […] Therefore F991 was applied on the back of the mice instead of at the site of hapten challenge (ear). Mice were again sensitized and challenged as described above. […] This means that epicutaneous treatment should be done at the site of challenge (Figure 14). • C. Stability of F991 in ointment To determine the stability of F991 in ointment, different preparations of F991 in Cremor Cetamacrogolis FNA were tested for their activity after storage for 2-3 months at room temperature and at 4 degrees Celsius. The different preparations were applied at the ear as described in A. and subsequently ear swelling was monitored after hapten challenge of Ig-LC-sensitized animals. […] Mice were sensitized with a low molecular weight compound DNFB on the skin and footpads (on day 0 and 1). 5 days after the start of sensitization and 4 hours before local challenge with hapten, mice were treated with F991 on the ears.

[4] = 50 µg F991/animal i.p. daily from day -1 until day 21

Substance: F991: 9-mer peptide derived from the endogenous protein uromodulin, developed as an antagonist of Ig light chain; sequence probably AHWSGHCCL
- block of the Ig-LC -induced ear swelling (Ig light chain [1]; 2 µg per mouse (1.9 nmole) i.v. 30 min before hapten challenge, 2 hours after challenge): completely block
- induction of an ear swelling response (Ig light chain [1]; 50 µg F991 intraperitoneally at 4 or 24 hours before hapten challenge): completely prevented
- Ig-LC -induced ear swelling after hapten challenge (Ig light chain [1]; 50 µg F991 subcutaneously at 4 or 24 hours before hapten challenge): completely inhibited
- systemic inhibition of the Ig-LC effects (Ig light chain [1]; F991 ointment applied on the back of the mice instead of the ear): does not result in systemic inhibition
- inhibition of the ear swelling induced after hapten challenge (Ig light chain [1]; F991 ointment in Cremor Cetomacrogolis FNA applied on the ear 4 hours before hapten challenge, 2 hours after challenge): dose-dependent inhibition
- inhibition of the ear swelling response (Ig light chain [1]; different amounts of F991 i.v. 30 min before hapten challenge, ear thickness 2 hours after challenge): dose-dependent inhibition
- ear swelling, contact sensitivity (DNFB-sensitized mice; 2 hours after challenge): completely inhibited
- ear swelling, contact sensitivity (DNFB-sensitized mice; 24 hours after challenge): completely inhibited
- development of clinical signs of paralysis [2, 4]: completely prevented
- disease burden (mean cumulative EAE score) [2, 4]: 4.2
- clinical symptoms after termination of the treatment ([2]; termination of F991 at 21 days after sensitization): some minor clinical symptoms
- stability of F991 in ointment (activity after storage) (Ig light chain [3]): retained its activity
